The experiment addresses T1, androgen receptor (AR) (Homo sapiens, UniProt P10275, T878A).
T1 construct: LNCaP cells expressing ARR2PB-FireflyLuc and CMV-RenillaLuc; endogenous in cells; host or cells: LNCaP
T1 sequence (P10275 1-920 T878A): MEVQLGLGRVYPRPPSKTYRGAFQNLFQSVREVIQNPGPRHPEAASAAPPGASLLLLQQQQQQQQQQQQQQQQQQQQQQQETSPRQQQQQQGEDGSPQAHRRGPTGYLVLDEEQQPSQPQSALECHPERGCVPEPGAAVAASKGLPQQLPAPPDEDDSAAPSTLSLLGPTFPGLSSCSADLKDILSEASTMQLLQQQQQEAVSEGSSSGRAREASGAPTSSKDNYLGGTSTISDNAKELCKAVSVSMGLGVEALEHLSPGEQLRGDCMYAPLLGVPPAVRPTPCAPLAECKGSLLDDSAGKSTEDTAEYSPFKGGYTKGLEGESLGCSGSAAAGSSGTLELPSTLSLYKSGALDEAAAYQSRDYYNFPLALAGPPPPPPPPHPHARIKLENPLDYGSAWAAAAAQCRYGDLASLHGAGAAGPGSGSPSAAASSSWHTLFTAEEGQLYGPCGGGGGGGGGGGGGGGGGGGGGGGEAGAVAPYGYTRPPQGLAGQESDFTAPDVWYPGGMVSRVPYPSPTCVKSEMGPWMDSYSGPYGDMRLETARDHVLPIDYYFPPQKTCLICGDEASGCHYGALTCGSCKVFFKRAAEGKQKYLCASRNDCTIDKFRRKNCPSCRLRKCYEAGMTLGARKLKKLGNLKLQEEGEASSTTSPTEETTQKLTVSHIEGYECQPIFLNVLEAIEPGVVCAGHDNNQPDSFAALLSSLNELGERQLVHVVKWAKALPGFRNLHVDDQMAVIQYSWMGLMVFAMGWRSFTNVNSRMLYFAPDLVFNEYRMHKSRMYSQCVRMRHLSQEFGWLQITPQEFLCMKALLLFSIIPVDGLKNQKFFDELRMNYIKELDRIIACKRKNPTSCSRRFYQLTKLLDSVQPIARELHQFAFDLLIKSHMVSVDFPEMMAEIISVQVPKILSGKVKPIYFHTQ
Briefly: LNCaP ARR2PB-FireflyLuc / CMV-RenillaLuc reporter assay, antagonist mode. Type of experiment: cell-based. The settings on record: LNCaP cells expressing ARR2PB-FireflyLuc and CMV-RenillaLuc; +/- 0.5 nM DHT; 48 h at 37° C. The protocol:
LNCaP cells expressing ARR2PB-FireflyLuc and CMV-RenillaLuc were treated with indicated concentrations of test compounds, enzalutamide ([…]), or DHT (positive control)+/−0.5 nM DHT for 48 h at 37° C. Fluorescent signals were read with the ImageXpress Micro Confocal System. Remaining activity (antagonist mode) was calculated as % Remaining Activity=100×[(ReadSample−[…])/(HCave−LCave)] where HC is cells treated with 0.5 nM DHT only and LC is cells treated with 10 uM enzalutamide+0.5 nM DHT. Activation (agonist mode) was calculated as % Activation=100×[(ReadSample−LCave)/(HCave−LCave)] where HC is cells treated with 1 uM DHT and LC is cells treated with DMSO. Dose response curves and IC50 values were calculated using non-linear regression analysis in XLfit.
The designation “A” indicates an IC50 value of >10 μM, “B” indicates an IC50 value between 1 μM and 10 μM; “C” indicates an IC50 value between 100 nM and 1 μM; and “D” indicates an IC50 value of less than 100 nM.

Molecules are shown by their SMILES.

The term IC50 denotes the concentration at which inhibition is half-maximal. For the compound `CCn1nc(-c2c[nH]c3c(C#N)cccc23)c(C)cc1=O` [Compound 005, 3-(1-ethyl-4-methyl-6-oxopyridazin-3-yl)-1H-indole-7-carbonitrile], the IC50 was in the range of 1000 to 10000 nM.
Then `CCn1ccc(-c2c[nH]c3c(C#N)cccc23)n1` [Compound 008, 3-(1-ethylpyrazol-3-yl)-1H-indole-7-carbonitrile], with below 100 nM; and `CCn1nc(-c2c[nH]c3c(C#N)cccc23)ccc1=O` [Compound 002, 3-(1-ethyl-6-oxopyridazin-3-yl)-1H-indole-7-carbonitrile], with below 100 nM; and `CCN1N=C(c2c[nH]c3c(C#N)cccc23)CCC1=O` [Compound 001, 3-(1-ethyl-6-oxo-4,5-dihydropyridazin-3-yl)-1H-indole-7-carbonitrile], with 100 to 1000 nM.
In the case of `N#Cc1cccc2c(-c3ccc(=O)n(CC(F)F)n3)c[nH]c12` [Compound 004, 3-[1-(2,2-difluoroethyl)-6-oxopyridazin-3-yl]-1H-indole-7-carbonitrile], the IC50 was 100 to 1000 nM.
In turn, `CCn1nc(-c2c[nH]c3c(Cl)nccc23)ccc1=O` [Compound 003, 6-[7-chloro-1H-pyrrolo[2,3-c]pyridin-3-yl]-2-ethylpyridazin-3-one] gave an IC50 above 10000 nM.
`CC(C)(O)Cn1ccc(-c2c[nH]c3c(C#N)cccc23)n1` [Compound 010, 3-[1-(2-hydroxy-2-methylpropyl)pyrazol-3-yl]-1H-indole-7-carbonitrile] displayed an IC50 above 10000 nM.
Then `N#Cc1cccc2c(-c3ccn(C4CC4)n3)c[nH]c12` [Compound 009, 3-(1-cyclopropylpyrazol-3-yl)-1H-indole-7-carbonitrile], with 100 to 1000 nM; and `CCn1nc(-c2c[nH]c3c(C#N)cccc23)cc1C` [Compound 011, 3-(1-ethyl-5-methylpyrazol-3-yl)-1H-indole-7-carbonitrile], with 100 to 1000 nM; and `CCn1cc(-c2c[nH]c3c(C#N)cccc23)cn1` [Compound 007, 3-(1-ethylpyrazol-4-yl)-1H-indole-7-carbonitrile], with 1000 to 10000 nM.
Then `CCn1nc(C)cc1-c1c[nH]c2c(C#N)cccc12` [Compound 012, 3-(2-ethyl-5-methylpyrazol-3-yl)-1H-indole-7-carbonitrile], with below 100 nM; and `CCn1nc(-c2c[nH]c3c(C#N)cccc23)cc(OC)c1=O` [Compound 006, 3-(1-ethyl-5-methoxy-6-oxopyridazin-3-yl)-1H-indole-7-carbonitrile], with 1000 to 10000 nM.

The values are drawn from patent publication US20220306609A1, “BICYCLIC COMPOUNDS AS ANDROGEN RECEPTOR MODULATORS” (NIDO BIOSCIENCES, INC., priority 2021, published 2022).
